Laboratory results published in patent publication US20040048772A1, “Preventives for arthritis” (priority 2001, published 2004).

Legend:
[1] = test system: animal model for arthritis; conditions: administration after induction of arthritis; cited from earlier work
[2] = test system: systemic injury of ear and tail; chondral injury at joints; conditions: in vivo; cited from earlier work
[3] = test system: Mice with Type II Collagen-Induced Arthritis; test: Effect of N-acetylhydroxyproline in mice with type II collagen-induced arthritis (arthritis score, preventive feeding); type: in vivo, DBA/1J mice; conditions: for Score of arthritis: mean±SE, N=20, score 0-16 points
Description: Effect of N-acetylhydroxyproline in Mice with Type II Collagen-Induced Arthritis
It is known that arthritis is induced in DBA/1J mice (Charles River) by administering type II collagen two times.
As the first administration of type II collagen, a solution prepared by mixing an equal amount of type II collagen [Collagen Gijutsu Kenshu-Kai (MCK)] and Freund's complete adjuvant (Iatron) and emulsifying the mixture using a homogenizer was intradermally administered to 6-week old male DBA/1J mice (Charles River) in an amount of 100 μl per one animal.
At day 21 after the first administration of type II collagen, as the second administration of type II collagen, a solution prepared by mixing an equal amount of type II collagen and Freund's complete adjuvant and emulsifying the mixture using a homogenizer in a similar manner was intradermally administered to the animals in an amount of 100 μl per one animal. In this manner, arthritis was induced in mice.
Starting on the day of the first administration of type II collagen, the mice were bred by feeding a powder feed, CE-2 (CLEA Japan), containing the addition of 0.02, 0.1 or 0.5% (hereinafter % refers to wt %) of N-acetylhydroxyproline (Kyowa Hakko Kogyo). As control, a group of mice were fed with the powder feed CE-2 containing no additive. At days 23, 27, 30, 33, 36, 40 and 42 after the first administration of type II collagen, the extent of the onset of arthritis was scored according to the following indices.
Scoring was carried out by applying 0-4 points with respect to […] of mice: 0: no symptom; 1: swelling of one finger or swelling (slight) of ankles; 2: swelling of 1-3 fingers or swelling of ankles; 3: swelling of 3-5 fingers plus swelling of ankles; and 4: swelling of all the fingers plus swelling of ankles. Each mouse was scored the total of the points of 4 paws, namely, 0-16 points. Twenty mice each were subjected to observation with respect to each of the conditions.
In the table, the figures show the score under different treatment conditions, which is given as mean±SE (N=20).
In the table, “no treatment” means no treatment with type II collagen.

SMILES: CC(=O)N1C[C@H](O)C[C@H]1C(=O)O [N-Acetylhydroxyproline, N-acetylhydroxyproline]
- Aggravation of arthritis [1]: can prevent aggravation of arthritis
- Effect on chondral injury at joints [2]: no effect
- Effect on systemic injury of ear and tail [2]: shows a therapeutic effect
- Rising of the score of arthritis compared with feed containing no additive ([3]; 0.02% in powder feed CE-2): suppressive tendency
- Score of arthritis ([3]; 0.02% in powder feed CE-2, day 23): 0.0 ± 0.0
- Score of arthritis ([3]; 0.02% in powder feed CE-2, day 27): 4.2 ± 0.8
- Score of arthritis ([3]; 0.02% in powder feed CE-2, day 30): 7.6 ± 0.9
- Score of arthritis ([3]; 0.02% in powder feed CE-2, day 33): 9.3 ± 0.8
- Score of arthritis ([3]; 0.02% in powder feed CE-2, day 36): 9.7 ± 0.9
- Score of arthritis ([3]; 0.02% in powder feed CE-2, day 40): 10.0 ± 0.8
- Score of arthritis ([3]; 0.02% in powder feed CE-2, day 42): 10.1 ± 0.9
- Score of arthritis ([3]; 0.02% in powder feed CE-2 from first collagen administration, day 0): 0.0 ± 0.0
- Rising of the score of arthritis compared with feed containing no additive ([3]; 0.1% in powder feed CE-2): suppressive tendency
- Score of arthritis ([3]; 0.1% in powder feed CE-2, day 23): 0.1 ± 0.1
- Score of arthritis ([3]; 0.1% in powder feed CE-2, day 27): 4.6 ± 0.9
- Score of arthritis ([3]; 0.1% in powder feed CE-2, day 30): 7.3 ± 1.0
- Score of arthritis ([3]; 0.1% in powder feed CE-2, day 33): 8.3 ± 1.1
- Score of arthritis ([3]; 0.1% in powder feed CE-2, day 36): 8.6 ± 1.0
- Score of arthritis ([3]; 0.1% in powder feed CE-2, day 40): 8.5 ± 1.0
- Score of arthritis ([3]; 0.1% in powder feed CE-2, day 42): 8.7 ± 1.0
- Score of arthritis ([3]; 0.1% in powder feed CE-2 from first collagen administration, day 0): 0.0 ± 0.0
- Scores of arthritis compared with control (feed containing no addition) ([3]; 0.5% in powder feed CE-2): significantly low
- Score of arthritis ([3]; 0.5% in powder feed CE-2, day 23): 0.0 ± 0.0
- Score of arthritis ([3]; 0.5% in powder feed CE-2, day 27): 3.8 ± 0.7
- Score of arthritis ([3]; 0.5% in powder feed CE-2, day 30): 5.9 ± 0.9
- Score of arthritis ([3]; 0.5% in powder feed CE-2, day 33): 7.7 ± 0.8
- Score of arthritis ([3]; 0.5% in powder feed CE-2, day 36): 8.1 ± 0.8
- Score of arthritis ([3]; 0.5% in powder feed CE-2, day 40): 8.4 ± 0.7
- Score of arthritis ([3]; 0.5% in powder feed CE-2, day 42): 8.5 ± 0.7
- Score of arthritis ([3]; 0.5% in powder feed CE-2 from first collagen administration, day 0): 0.0 ± 0.0
- Onset of arthritis ([3]; taken previously, before the onset of arthritis): could be suppressed
